Experimental data published in US7595327B2, “Beta-sulfonamide hydroxamic acid inhibitors of tace/matrix metalloproteinase” (priority 2005, dated 2009).

Assays:
[1] = target: T1, TACE (catalytic domain of the recombinant TACE protein) (Homo sapiens, UniProt P78536); assay: TACE FRET assay using TACE Cat; format: biochemical; conditions: FRET, pro-TNF-α substrate peptide; read-out: TACE IC50
T1 construct: The catalytic domain of the recombinant TACE protein was expressed and purified; made in house
Procedure, shortened: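 Recombinant TACE catalytic domain (1 ug/ml) pre-incubated 10 min at room temperature with inhibitor in 50 mM Tris-HCl pH 7.4, 25 mM NaCl, 4% glycerol, 0.005% Brij 35; Abz/Dpa pro-TNF-α peptide substrate added, fluorescence (Ex 320/Em 420) followed 10 min; IC50 from initial rates by Hill fit.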

recombinant human MMP-9 = target: T2, recombinant human MMP-9 (Homo sapiens, UniProt P14780); assay: In-vitro fluorescence assay of MMP-9 activity; format: biochemical
T2 construct: purchased Calbiochem PF024
Method: The method was similar to that for the determination of MMP-1 activity, described above, with the following differences. Active, recombinant human MMP-7 was purchased from Calbiochem (catalog #444270; expressed in E. coli, 19 kDa). […] The concentration of the substrate stock was spectrophotometrically determined using the extinction coefficient at 410 nm of 7500 M^−1 cm^−1. The assay buffer (pH 7.4) consisted of 50 mM Hepes, 100 mM NaCl, 5 mM CaCI2, and 0.005% Brij-35. […] The plates were then incubated at room temperature for 30 minutes. The enzymatic reactions were initiated by adding substrate to a final concentration of 15 μM and were mixed by pipelting up and down. The final DMSO concentration in the assay was 10% and the final, total assay volume was 200 μl. […].
The method was essentially the same as for the determination of MMP-7 activity, described above, except that the source of enzyme in the assay was recombinant human MMP-9 (83 kDa) was purchased from Calbiochem (catalog #PF024), the final enzyme concentration was 0.5-1.0 nM, and the final substrate concentration was 20 μM.

T2 sequence (P14780 107-707 limits assumed): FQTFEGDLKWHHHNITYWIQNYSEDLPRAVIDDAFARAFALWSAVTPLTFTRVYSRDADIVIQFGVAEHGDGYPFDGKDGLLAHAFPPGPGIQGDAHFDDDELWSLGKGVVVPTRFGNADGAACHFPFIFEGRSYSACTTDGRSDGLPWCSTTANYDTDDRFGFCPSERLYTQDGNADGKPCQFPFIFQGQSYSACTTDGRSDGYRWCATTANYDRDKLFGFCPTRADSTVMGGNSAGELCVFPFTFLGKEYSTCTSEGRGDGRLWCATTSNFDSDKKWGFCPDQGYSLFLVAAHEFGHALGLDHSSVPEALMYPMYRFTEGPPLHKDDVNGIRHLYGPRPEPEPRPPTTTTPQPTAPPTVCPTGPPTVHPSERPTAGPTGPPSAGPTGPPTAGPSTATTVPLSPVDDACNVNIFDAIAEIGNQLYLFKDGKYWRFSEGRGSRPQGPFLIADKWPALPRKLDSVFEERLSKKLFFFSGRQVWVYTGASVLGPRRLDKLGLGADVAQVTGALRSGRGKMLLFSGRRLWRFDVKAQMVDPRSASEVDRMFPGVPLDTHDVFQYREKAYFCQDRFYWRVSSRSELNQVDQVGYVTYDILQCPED
T1 sequence (P78536 223-474 limits assumed): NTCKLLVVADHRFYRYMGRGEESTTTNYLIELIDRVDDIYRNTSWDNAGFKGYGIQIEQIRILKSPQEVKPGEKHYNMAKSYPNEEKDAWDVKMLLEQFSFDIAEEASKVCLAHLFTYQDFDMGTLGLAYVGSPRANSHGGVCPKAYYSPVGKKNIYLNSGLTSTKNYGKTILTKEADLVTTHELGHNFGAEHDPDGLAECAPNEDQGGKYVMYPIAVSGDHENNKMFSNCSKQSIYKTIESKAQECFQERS

| SMILES | IC50 [1] [nM] | IC50 (recombinant human MMP-9) [nM] |
| --- | --- | --- |
| Cc1cc(COc2ccc(S(=O)(=O)N[C@@H]3CN(S(C)(=O)=O)C[C@@H]3C(=O)NO)cc2)c2ccccc2n1 (relative stereo) [Example 17, cis-N-Hydroxy-4-[({4-[(2-methylquinolin-4-yl)methoxy]phenyl}sulfonyl)amino]-1-(methylsulfonyl) pyrrolidine-3-carboxamide] | 0.6 | > 16700 |
| Cc1cc(COc2ccc(S(=O)(=O)N[C@@H]3CN(C=O)C[C@@H]3C(=O)NO)cc2)c2ccccc2n1 (relative stereo) [Example 20, cis-1-Formyl-N-hydroxy-4-[({4-[(2-methylquinolin-4-yl)methoxy]phenyl}sulfonyl)amino]pyrrolidine-3-carboxamide] | 1.1 | > 16700 |
| CCNC(=O)N1C[C@H](C(=O)NO)[C@H](NS(=O)(=O)c2ccc(OCc3cc(C)nc4ccccc34)cc2)C1 (relative stereo) [Example 23, cis-1-Ethyl-N-hydroxy-4-[({4-[(2-methylquinolin-4-yl)methoxy]phenyl}sulfonyl)amino]pyrrolidine-1,3-dicarboxamide] | 1.3 | > 16700 |
| Cc1cc(COc2ccc(S(=O)(=O)N[C@H]3COC[C@H]3C(=O)NO)cc2)c2ccccc2n1 (stereo in doubt) [Example 26, (3S,4R)-4-[4-(2-Methyl-quinolin-4-ylmethoxy)-benzenesulfonylamino]-tetrahydro-furan-3-carboxylic acid hydroxyamide] | 0.6 | > 16700 |
| Cc1cc(COc2ccc(S(=O)(=O)N[C@@H]3CCC[C@@H]3C(=O)NO)cc2)c2ccccc2n1 [Example 13, (1S,2R)-N-Hydroxy-2-[({4-[(2-methylquinolin-4-yl)methoxy]phenyl}sulfonyl)amino]cyclopentanecarboxamide] | < 0.6 | > 16700 |
| Cc1cc(COc2ccc(S(=O)(=O)N[C@@H]3CN(C(=O)NC(C)(C)C)CC[C@@H]3C(=O)NO)cc2)c2ccccc2n1 [Example 35, 3-[4-(2-Methyl-quinolin4-ylmethoxy)-benzenesulfonylamino]-piperidine-1,4-dicarboxylic acid 1-tert-butylamide 4-hydroxyamide] | 1.4 | > 16700 |
